Experimental data as given in the METLIN SMRT retention time set (Domingo-Almenara et al. 2019).

Assay: gradient 5% acetonitrile 3 min, to 50% in 2 min, to 85% in 15 min, held 3 min, 100 µL/min
Details: column: Zorbax Extend-C18 2.1 x 50 mm; eluents: water / acetonitrile, 0.1% formic acid
Summary of the method: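 Data were gathered over 3 months by HPLC coupled to a quadrupole time-of-flight mass spectrometer, operated in positive and negative ionization mode. Mixtures of ~100 pure standards ran on a Zorbax Extend-C18 column (2.1 × 50 mm, 1.8 μm) at 100 μL/min, with water and acetonitrile each containing 0.1% formic acid and dead and dwell volumes of 40 μL and 900 μL. Retention time was read from adduct peaks picked by computer and checked manually.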

| Structure (SMILES) | RP-LC retention time [s] |
| --- | --- |
| COc1ccc(OC)c(S(=O)(=O)N2CCCC(C)(C(=O)NCc3ccccc3)C2)c1 (centres undefined) | 903 |
| CN(CCCNC(=O)c1sc2ncccc2c1-n1cccc1)Cc1ccccc1 | 662 |
| O=C1CCCc2c1cc(C(=O)NCc1cccnc1)c(=O)n2-c1ccc(C(F)(F)F)cc1 | 644 |
| CCCN1CCN(c2ncc3c(n2)CCN(Cc2ccc(OCC)c(OCC)c2)C3)CC1 | 579 |
| CCc1ccccc1NC(=O)N1CCC(c2nc(C(=O)N3CCCC3)c(C)o2)CC1 | 782 |
| CCN(CC)C(=O)c1c2c(nc3ccccc13)CCCC2 | 605 |
| O=C(Nc1ccc(-n2cnnn2)cc1)C1CN(c2nc3ccccc3s2)C1 | 659 |
| Cn1c(=O)n(CC(=O)O)c(=O)c2c1nc1n2CCCN1c1ccc(F)cc1 | 632 |
| COC(=O)c1ccccc1Nc1c(-c2ccccn2)nc2cnccn12 | 816 |
| CN(C)c1ccc(C(=O)NCC(C)(O)c2ccco2)cc1 (centres undefined) | 665 |
| CC(NC(=O)Cc1nnc2cc(-c3nc(C4CC4)no3)ccn12)c1ccc(F)cc1 (centres undefined) | 780 |
| CCCn1cc(CNC(=O)CN2CCN(Cc3ccc(F)cc3)C2=O)c(C)n1 | 674 |
| CC1CCN(C(=O)Cc2nnc3cc(-c4nc(C(C)C)no4)ccn23)CC1 | 770 |
| Cc1ccc(-c2nccn3cc(C(=O)NCc4ccncc4)nc23)cc1 | 633 |
| CCCS(=O)(=O)c1nc2ccc(NS(=O)(=O)c3ccc4c(c3)OCCO4)cc2s1 | 888 |
| COCCCNC(=O)C1(C)Cn2nc(-c3ccccc3)cc2C(=O)N1Cc1cc(OC)ccc1OC (centres undefined) | 903 |
| COc1cc(OC)cc(-c2nnc(Cc3nc(-c4ccccc4)no3)o2)c1 | 1020 |
| O=C(NCc1ccccn1)C1CCN(S(=O)(=O)c2cc(C(=O)N3CCCC3)cs2)CC1 | 609 |
| Cc1cc(NC(=O)N2CCC(CN3CCCC(C)C3)CC2)ccc1Br (centres undefined) | 682 |
| CCc1nn2c(CNC(=O)c3ccccn3)c(-c3ccccc3)nc2s1 | 891 |
| O=C(NCc1cccs1)C1CCCN(C(=O)c2cc(-c3ccncc3)n[nH]2)C1 (centres undefined) | 574 |
| Cc1ccc(C)c(N2CCN(c3ccnc(SCC(=O)NC4CCCC4)n3)CC2)c1 | 886 |
| Cc1cc(F)ccc1S(=O)(=O)NCCc1ccsc1 | 900 |

| Structure (SMILES) | RP-LC retention time [s] |
| --- | --- |
| Cc1cc(C(=O)Nc2nc3c(s2)CN(C(=O)c2cccn(C)c2=O)CC3)no1 | 595 |
| COc1ccc(-c2nc(C3CC(=O)N(c4ccc(Cl)cc4)C3)no2)c(C)c1 (centres undefined) | 1140 |
| O=C(Cn1cccc1-c1nc(-c2ccc3c(c2)OCO3)no1)N1CCc2ccccc21 | 1090 |
| CCCc1nc(-c2c(C)cc(C)nc2NC(=O)c2ccc(F)cc2)no1 | 864 |
| Cc1cccc(C(=O)N2CCC3(CC2)NC(=O)c2cc(C)ccc2N3C)c1 | 805 |
| Cc1noc(C)c1CNC(=O)c1cc(Cl)ccc1F | 778 |
| O=C(Cn1c(=O)oc2ccccc21)N1CCN(S(=O)(=O)C2CC2)CC1 | 670 |
| CSc1ccc(CNC(=O)C2CCCN(c3nccn4nc(-c5ccc(C)cc5C)cc34)C2)cc1 (centres undefined) | 1030 |
| O=C(CN1C(=O)CCCc2ccccc21)NCc1ccc(F)c(Cl)c1 | 859 |
| COc1ccc(NC(=O)c2nnc(CSCC(=O)N3CCN(c4ccccn4)CC3)s2)cc1 | 629 |
| CCCCN(CCNC(=O)C1CCCN(c2ncnc3c2nc2n3CCCCC2)C1)Cc1ccco1 (centres undefined) | 656 |
| O=C(c1nc(-c2ccnc(N3CCCCC3)c2)no1)N1CCN(C2CCCCC2)CC1 | 609 |
| CCOC(=O)c1cnn(-c2ccc(Cl)nn2)c1C | 871 |
| CC1=C(c2ccc(C)cc2)S(=O)(=O)N=C1N1CCCN(C(=O)c2ccccc2F)CC1 | 846 |
| O=C(Nc1ccc(Br)cc1)Nc1ccccc1Cl | 1140 |
| CCc1ccc(NC(=O)C2CCN(S(=O)(=O)c3ccc4c(c3)CCCC(=O)N4)CC2)cc1 | 834 |
| CCc1ccc(NC(=O)N2CCN(c3cnn4c(C)nnc4c3)CC2)cc1 | 649 |
| CCCNC(=O)Cn1c(C)cc(=O)n2nc(-c3ccc(Cl)cc3)nc12 | 871 |
| Cc1cccc(NC(=O)c2[nH]c(C)c(S(=O)(=O)N3CCCC3)c2C)c1C | 858 |
| COC(=O)c1ccsc1NC(=O)c1cc(-c2ccccc2)on1 | 1170 |
| CC(C)n1c(-c2cccc(C(=O)NC3CCCC3)c2)nc2cccnc21 | 796 |
| Cc1ccc(-c2noc(-c3nnc(NCCCN4CCOCC4)c4ccccc34)n2)cc1 | 735 |
| COc1ccccc1CC(=O)N1CCC2(CC1)N=C(c1ccccc1)NO2 | 791 |

| Structure (SMILES) | RP-LC retention time [s] |
| --- | --- |
| Cc1nc(CC(=O)NC(C)c2ccc(F)cc2)sc1C(=O)NC1CC1 (centres undefined) | 683 |
| COc1cccc2cc(C(=O)NCCn3nc(-c4cccs4)ccc3=O)oc12 | 676 |
| Cc1cccc(-c2noc(-c3ccc(N4CCN(c5ccccc5F)CC4)nc3)n2)c1 | 613 |
| CC(=O)N1CCC(C(=O)NCc2ccc(-c3nc(-c4ccc(F)cc4)no3)s2)CC1 | 786 |
| CC(C)(C)c1ccc(S(=O)(=O)NCC(=O)Nc2ccc3c(c2)OCO3)cc1 | 846 |
| CCn1nnc2ccc(-c3noc(-c4cccc(C#N)c4)n3)cc21 | 957 |
| Cc1cc(C(=O)N(CC2CCCO2)c2nc3c(F)cc(F)cc3s2)on1 (centres undefined) | 1080 |
| Cc1ccc(NC(=O)Cn2c(C)cc(-c3nnc(C)o3)c2C)c(C)c1 | 802 |
| COc1cc(=O)n2c(c1C(=O)Nc1cccc(Br)c1)CCCC2 | 760 |
| CCc1nn2c(CNC(=O)c3cccc(C)c3)c(-c3ccccc3)nc2s1 | 936 |
| Cc1nc2ccn(Cc3ccco3)c(=O)c2cc1C(=O)N1CCC(C)CC1 | 746 |
| CCOC(=O)Cn1cc(-c2nc(-c3ccc(Br)cc3)no2)ccc1=O | 1050 |
| CCc1cc(C(=O)N2CCN(c3ccccn3)CC2)nc2ccnn12 | 573 |
| Cc1nc(-c2ccc3c(c2)CCN3C(=O)Cc2cccc(F)c2)no1 | 923 |
| O=C(NC1CCCN(c2cc(-c3ccncc3)[nH]n2)C1)c1cccc(F)c1 (centres undefined) | 593 |
| O=C(CCC(=O)N1CC2CCCN2c2ccccc21)NCc1ccc2c(c1)OCO2 (centres undefined) | 855 |
| O=C(CN1C(=O)CCC1=O)N1CC(c2nc(-c3cnccn3)no2)C1 | 574 |
| Cc1noc(C)c1CC(=O)NCC1Cn2cccc2C(=O)N1CC(C)C (centres undefined) | 664 |
| CCCn1cc(CCNC(=O)c2ccc(Cl)s2)c2cccnc21 | 833 |
| CCc1nc2cc(-c3noc(-c4n[nH]c5ccccc45)n3)ccc2o1 | 645 |
| CCOC(=O)c1ccccc1NC(=O)Cn1nc2ccc(-c3ccc(Cl)cc3)nn2c1=O | 989 |
| CCn1c(=O)c2ccccc2n(CC(=O)N2CCC(C(N)=O)CC2)c1=O | 601 |
| Cc1ccc(Cl)cc1NC(=O)CC1COc2ccccc2NC1=O (centres undefined) | 767 |

| Structure (SMILES) | RP-LC retention time [s] |
| --- | --- |
| CCc1nnc(-c2ccc(NS(=O)(=O)c3cccc(OC)c3)cc2)o1 | 801 |
| O=C1CCc2cc(S(=O)(=O)N3CCCC3C(=O)N3CCN(c4ccccc4)CC3)ccc2N1 (centres undefined) | 713 |
| Cc1noc(-c2nn(C)c3c2CN(C(=O)c2ccc(Br)cc2)CC3)n1 | 774 |
| Cc1cc(C)n(-c2ccnc(N3CCN(c4ccccc4F)CC3)n2)n1 | 1220 |
| CCN(CC)C(=O)N1CCC2(CC1)C(OC)C(=O)N2c1cccc(F)c1 (centres undefined) | 937 |
| COC(=O)c1cnc2nc(C)ccc2c1NCc1ccc2c(c1)OCO2 | 659 |
| CCCC(=O)N1CCCn2nc(-c3cccnc3)cc2C1 | 577 |
| Cc1nc(NC(=O)CCn2cnc3ccccc3c2=O)sc1C(=O)N(C)C | 589 |
| CCC(=O)N(C1CCOCC1)C1CCN(S(=O)(=O)c2ccc(Cl)cc2)CC1 | 886 |
| CCN1CCN(C(=O)c2cn(-c3ccc(NC(=O)CC(C)C)cn3)cn2)CC1 | 589 |
| O=c1cc(-c2ccc(O)cc2)oc2cc(O[C@@H]3O[C@H](CO)[C@H](O)[C@H](O)[C@H]3O)cc(O)c12 | 746 |
| O=C(NCC#CCN1CCc2ccccc2C1)c1ccc(Cl)s1 | 587 |
| Cc1cc(NC(=O)c2ccc(S(=O)(=O)Nc3ccc4c(c3)OCO4)o2)no1 | 737 |
| CCCNC(=O)CC1CCN(C(=O)c2[nH]c(C)c(C(=O)OC(C)C)c2C)CC1 | 724 |
| CCCC(CCC)C(=O)NCCS(=O)(=O)N1CCN(c2ccccn2)CC1 | 594 |
| CCCNC(=O)C1CCCN(c2ccc(SCC(=O)Nc3ccc(Cl)cc3)nn2)C1 (centres undefined) | 712 |
| CN(C)c1ccc(CNC(=O)C2(c3ccc(NS(C)(=O)=O)cc3)CCCCC2)cc1 | 672 |
| Cc1ccn2cc(C(=O)NCc3ccccc3F)nc2c1 | 628 |
| CCOC(=O)c1[nH]c(C)c(CN(Cc2ccco2)C(=O)Nc2ccccc2)c1C | 957 |
| CCCN1C(=O)COc2ccc(-c3noc(-c4n[nH]c5c4CCCC5)n3)cc21 | 1000 |
